Measured values as given in patent US11214594B2, “Antimicrobial peptide having synergistic antibacterial effect with antibiotics on multidrug resistant bacteria, and use thereof” (priority 2016, dated 2022).
Converted amounts (≈) assume the structure as drawn. Read-outs that look alike come from different tables or passages of the source. Where a SMILES comes first, the peptide text is derived from it.

Legend:
A. baumannii [1] = assay: MIC of antibiotic during combined treatment with antimicrobial peptide; type: cell-based, Acinetobacter baumannii; settings: for Antibiotic MIC, Erythromycin / Antibiotic MIC, Linezolid / Antibiotic MIC, Vancomycin: A. baumannii
How it was run: (§1)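 Antibiotic diluted in MH medium, dispensed per well with peptide; setup repeated with roles reversed; MIC read per combination.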

B. subtilis = assay: microbe, parasite or virus in culture; type: cell-based, Bacillus subtilis
How it was run: (§2)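 Peptides were serially diluted twofold in Mueller-Hinton medium and combined 1:1 with bacterial suspensions prepared at 2×10^6 CFU. Readout was the minimal inhibitory concentration, i.e. the lowest concentration with no growth.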

E. coli [2] = assay: microbe, parasite or virus in culture; type: cell-based, Escherichia coli
How it was run: as §2

MDREC 1229 [3] = assay: microbe, parasite or virus in culture; type: cell-based, Escherichia coli
How it was run: as §2

MDRST 8009 = type: cell-based, Salmonella typhimurium; settings: agent alone
How it was run: as §2

E. coli [4] = type: cell-based, Escherichia coli; settings: E. coli
How it was run: (§3)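 Antibiotic MIC came from antibiotic dilutions added to bacteria (2×10^6 CFU/ml, MH medium) already combined with peptide serially diluted 2:1 from its own MIC. Swapping the roles of the two agents gave the peptide MIC.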

MDREC 1229 [5] = type: cell-based, Escherichia coli
How it was run: as §3

S. epidermidis = assay: microbe, parasite or virus in culture; type: cell-based, Staphylococcus epidermidis
How it was run: as §2

S. aureus = assay: microbe, parasite or virus in culture; type: cell-based, Staphylococcus aureus
How it was run: as §2

MDRAB 12035 [6] = assay: microbe, parasite or virus in culture; type: cell-based, Acinetobacter baumannii
How it was run: as §2

A. baumannii [7] = assay: microbe, parasite or virus in culture; type: cell-based, Acinetobacter baumannii
How it was run: as §2

MDRAB 12035 [8] = assay: MIC of antimicrobial peptide during combined treatment with antibiotic; type: cell-based, Acinetobacter baumannii
How it was run: as §3

A. baumannii [9] = assay: as above; type: cell-based, Acinetobacter baumannii
How it was run: as §3

P. aeruginosa = assay: microbe, parasite or virus in culture; type: cell-based, Pseudomonas aeruginosa
How it was run: as §2

E. coli [10] = assay: MIC of antibiotic during combined treatment with antimicrobial peptide; type: cell-based, Escherichia coli; settings: for Antibiotic MIC, Erythromycin / Antibiotic MIC, Linezolid / Antibiotic MIC, Vancomycin: E. coli
How it was run: as §1

[11] = combined with peptide at 1 μg/ml
[12] = combined with peptide at 2 μg/ml
[13] = combined with peptide at 4 μg/ml
[14] = combined with peptide at 6 μg/ml
[15] = combined with peptide at 8 μg/ml
[16] = combined with peptide at 16 μg/ml
[17] = combined with peptide at 32 μg/ml
[18] = combined with peptide at 64 μg/ml
[19] = with Erythromycin […] (Conc./MIC 1)
[20] = erythromycin 4 μg/ml (Conc./MIC 1/8)
[21] = erythromycin 8 μg/ml (Conc./MIC 1/4)
[22] = erythromycin 16 μg/ml (Conc./MIC 1/2)
[23] = erythromycin 32 μg/ml (Conc./MIC 1)
[24] = vancomycin 512 μg/ml (Conc./MIC 1/2)
[25] = vancomycin 1024 μg/ml (Conc./MIC 1)

Compound: CC[C@H](C)[C@H](NC(=O)[C@H](CCCCN)NC(=O)[C@H](Cc1c[nH]c2ccccc12)NC(=O)[C@@H](N)CCCNC(=N)N)C(=O)N[C@@H](Cc1ccccc1)C(=O)N[C@@H](CCCCN)C(=O)N[C@@H](CCCCN)C(=O)N[C@H](C(=O)N1CCC[C@H]1C(=O)N[C@@H](CCCCN)C(=O)N[C@@H](CC(C)C)C(=O)N[C@@H](CC(C)C)C(=O)N[C@@H](Cc1c[nH]cn1)C(=O)N[C@@H](CO)C(=O)N[C@@H](C)C(=O)N[C@@H](CCCCN)C(=O)N[C@@H](CCCCN)C(=O)N[C@@H](Cc1c[nH]c2ccccc12)C(N)=O)[C@@H](C)CC [PapMA-9, RWK IFK KIP KLL HSA KKW-NH2] (H-RWKIFKKIPKLLHSAKKW-NH2; N-terminus assumed)
- Synergistic effect of antibacterial activity with existing antibiotics compared with PapMA-1 (A. baumannii [1]; A. baumannii and MDRAB 12035): higher level than the PapMA-1 peptide
- Antibiotic MIC, Erythromycin (A. baumannii [1]; [11]): 32 µg/mL
- Antibiotic MIC, Linezolid (A. baumannii [1]; [11]): >128 µg/mL
- Antibiotic MIC, Vancomycin (A. baumannii [1]; [11]): >128 µg/mL
- Antibiotic MIC, Erythromycin (A. baumannii [1]; [12]): 8 µg/mL
- Antibiotic MIC, Linezolid (A. baumannii [1]; [12]): 128 µg/mL
- Antibiotic MIC, Vancomycin (A. baumannii [1]; [12]): 128 µg/mL
- Antibiotic MIC, Erythromycin (A. baumannii [1]; [13]): 4 µg/mL
- Antibiotic MIC, Linezolid (A. baumannii [1]; [13]): 8 µg/mL
- Antibiotic MIC, Vancomycin (A. baumannii [1]; [13]): 32 µg/mL
- Antibiotic MIC, Erythromycin (A. baumannii [1]; [14]): 2 µg/mL
- Antibiotic MIC, Linezolid (A. baumannii [1]; [14]): 8 µg/mL
- Antibiotic MIC, Vancomycin (A. baumannii [1]; [14]): 16 µg/mL
- Antibiotic MIC, Erythromycin (A. baumannii [1]; [15]): 0.25 µg/mL
- Antibiotic MIC, Linezolid (A. baumannii [1]; [15]): 2 µg/mL
- Antibiotic MIC, Vancomycin (A. baumannii [1]; [15]): 8 µg/mL
- Antibiotic MIC, Erythromycin (A. baumannii [1]; [16]): 0.125 µg/mL
- Antibiotic MIC, Linezolid (A. baumannii [1]; [16]): 0.5 µg/mL
- Antibiotic MIC, Vancomycin (A. baumannii [1]; [16]): 2 µg/mL
- Antibiotic MIC, Erythromycin (A. baumannii [1]; [17]): 0 µg/mL
- Antibiotic MIC, Linezolid (A. baumannii [1]; [17]): 0 µg/mL
- Antibiotic MIC, Vancomycin (A. baumannii [1]; [17]): 0 µg/mL
- Antibiotic MIC, Erythromycin (A. baumannii [1]; [18]): 0 µg/mL
- Antibiotic MIC, Linezolid (A. baumannii [1]; [18]): 0 µg/mL
- Antibiotic MIC, Vancomycin (A. baumannii [1]; [18]): 0 µg/mL
- Minimal inhibitory concentration MIC (B. subtilis): >128 µg/mL
- Minimal inhibitory concentration MIC (E. coli [2]; 16 h): 32 µg/mL (≈ 13.9 µM)
- Antibacterial activity relative to PapMA-1 (E. coli [2]; E. coli): at least twice as high
- Minimal inhibitory concentration MIC (MDREC 1229 [3]): 64 µg/mL (≈ 27.7 µM)
- Minimal inhibitory concentration MIC (MDRST 8009): 64 µg/mL (≈ 27.7 µM)
- Peptide MIC (E. coli [4]; [19]): 0 µg/mL
- Peptide MIC (E. coli [4]; with Linezolid […] (Conc./MIC 1)): 0 µg/mL
- Peptide MIC (E. coli [4]; with Vancomycin 1024 μg/ml (Conc./MIC 1)): 0 µg/mL
- Peptide MIC (MDREC 1229 [5]; [19]): 0 µg/mL
- Peptide MIC (MDREC 1229 [5]; with Linezolid 512 μg/ml (Conc./MIC 1)): 0 µg/mL
- Minimal inhibitory concentration MIC (S. epidermidis): >128 µg/mL
- Minimal inhibitory concentration MIC (S. aureus): >128 µg/mL
- Minimal inhibitory concentration MIC (MDRAB 12035 [6]): 64 µg/mL (≈ 27.7 µM)
- Peptide MIC, peptide alone (MDRAB 12035 [6]): 64 µg/mL
- Minimal inhibitory concentration MIC (A. baumannii [7]): 32 µg/mL (≈ 13.9 µM)
- Peptide MIC, peptide alone (A. baumannii [7]): 32 µg/mL
- Peptide MIC during treatment with erythromycin (MDRAB 12035 [8]; [20]): 4 µg/mL
- Peptide MIC during treatment with erythromycin (MDRAB 12035 [8]; [21]): 4 µg/mL
- Peptide MIC during treatment with erythromycin (MDRAB 12035 [8]; [22]): 1 µg/mL
- Peptide MIC during treatment with erythromycin (MDRAB 12035 [8]; [23]): 0 µg/mL
- Peptide MIC during treatment with linezolid (MDRAB 12035 [8]; linezolid 64 μg/ml (Conc./MIC 1/8)): 2 µg/mL
- Peptide MIC during treatment with linezolid (MDRAB 12035 [8]; linezolid 512 μg/ml (Conc./MIC 1)): 0 µg/mL
- Peptide MIC during treatment with linezolid (MDRAB 12035 [8]; linezolid […] (Conc./MIC 1/2)): 1 µg/mL
- Peptide MIC during treatment with linezolid (MDRAB 12035 [8]; linezolid […] (Conc./MIC 1/4)): 2 µg/mL
- Peptide MIC during treatment with vancomycin (MDRAB 12035 [8]; [24]): 1 µg/mL
- Peptide MIC during treatment with vancomycin (MDRAB 12035 [8]; [25]): 0.25 µg/mL
- Peptide MIC during treatment with vancomycin (MDRAB 12035 [8]; vancomycin […] (Conc./MIC 1/4)): 1 µg/mL
- Peptide MIC during treatment with vancomycin (MDRAB 12035 [8]; vancomycin […] (Conc./MIC 1/8)): 2 µg/mL
- Peptide MIC during treatment with antibiotic (A. baumannii [9]; [20]): 4 µg/mL
- Peptide MIC during treatment with antibiotic (A. baumannii [9]; [21]): 2 µg/mL
- Peptide MIC during treatment with antibiotic (A. baumannii [9]; [22]): 2 µg/mL
- Peptide MIC during treatment with antibiotic (A. baumannii [9]; [23]): 0 µg/mL
- Peptide MIC during treatment with antibiotic (A. baumannii [9]; linezolid 32 μg/ml (Conc./MIC 1/8)): 4 µg/mL
- Peptide MIC during treatment with antibiotic (A. baumannii [9]; linezolid 64 μg/ml (Conc./MIC 1/4)): 4 µg/mL
- Peptide MIC during treatment with antibiotic (A. baumannii [9]; linezolid […] (Conc./MIC 1)): 0 µg/mL
- Peptide MIC during treatment with antibiotic (A. baumannii [9]; linezolid […] (Conc./MIC 1/2)): 2 µg/mL
- Peptide MIC during treatment with antibiotic (A. baumannii [9]; [24]): 0.25 µg/mL
- Peptide MIC during treatment with antibiotic (A. baumannii [9]; [25]): 0 µg/mL
- Peptide MIC during treatment with antibiotic (A. baumannii [9]; vancomycin […] (Conc./MIC 1/4)): 0.5 µg/mL
- Peptide MIC during treatment with antibiotic (A. baumannii [9]; vancomycin […] (Conc./MIC 1/8)): 2 µg/mL
- Minimal inhibitory concentration MIC (P. aeruginosa): 8 µg/mL (≈ 3.47 µM)
- Synergistic effect of antibacterial activity with existing antibiotics compared with PapMA-1 (E. coli [10]; E. coli and MDREC1229): higher level than the PapMA-1 peptide
- Antibiotic MIC, Erythromycin (E. coli [10]; erythromycin combined with peptide at 1 μg/ml): 128 µg/mL
- Antibiotic MIC, Erythromycin (E. coli [10]; erythromycin combined with peptide at 2 μg/ml): 64 µg/mL
- Antibiotic MIC, Erythromycin (E. coli [10]; erythromycin combined with peptide at 4 μg/ml): 8 µg/mL
- Antibiotic MIC, Erythromycin (E. coli [10]; erythromycin combined with peptide at 6 μg/ml): 2 µg/mL
- Antibiotic MIC, Erythromycin (E. coli [10]; erythromycin combined with peptide at 8 μg/ml): 0.5 µg/mL
- Antibiotic MIC, Erythromycin (E. coli [10]; erythromycin combined with peptide at 16 μg/ml): 0.125 µg/mL
- Antibiotic MIC, Erythromycin (E. coli [10]; erythromycin combined with peptide at 32 μg/ml): 0 µg/mL
- Antibiotic MIC, Erythromycin (E. coli [10]; erythromycin combined with peptide at 64 μg/ml): 0 µg/mL
- Antibiotic MIC, Linezolid (E. coli [10]; linezolid combined with peptide at 1 μg/ml): >128 µg/mL
- Antibiotic MIC, Linezolid (E. coli [10]; linezolid combined with peptide at 2 μg/ml): >128 µg/mL
- Antibiotic MIC, Linezolid (E. coli [10]; linezolid combined with peptide at 4 μg/ml): 16 µg/mL
- Antibiotic MIC, Linezolid (E. coli [10]; linezolid combined with peptide at 6 μg/ml): 8 µg/mL
- Antibiotic MIC, Linezolid (E. coli [10]; linezolid combined with peptide at 8 μg/ml): 4 µg/mL
- Antibiotic MIC, Linezolid (E. coli [10]; linezolid combined with peptide at 16 μg/ml): 2 µg/mL
- Antibiotic MIC, Linezolid (E. coli [10]; linezolid combined with peptide at 32 μg/ml): 0 µg/mL
- Antibiotic MIC, Linezolid (E. coli [10]; linezolid combined with peptide at 64 μg/ml): 0 µg/mL
- Antibiotic MIC, Vancomycin (E. coli [10]; vancomycin combined with peptide at 1 μg/ml): >128 µg/mL
- Antibiotic MIC, Vancomycin (E. coli [10]; vancomycin combined with peptide at 2 μg/ml): >128 µg/mL
- Antibiotic MIC, Vancomycin (E. coli [10]; vancomycin combined with peptide at 4 μg/ml): 64 µg/mL
- Antibiotic MIC, Vancomycin (E. coli [10]; vancomycin combined with peptide at 6 μg/ml): 16 µg/mL
- Antibiotic MIC, Vancomycin (E. coli [10]; vancomycin combined with peptide at 8 μg/ml): 8 µg/mL
- Antibiotic MIC, Vancomycin (E. coli [10]; vancomycin combined with peptide at 16 μg/ml): 2 µg/mL
- Antibiotic MIC, Vancomycin (E. coli [10]; vancomycin combined with peptide at 32 μg/ml): 0 µg/mL
- Antibiotic MIC, Vancomycin (E. coli [10]; vancomycin combined with peptide at 64 μg/ml): 0 µg/mL
